Test system: hearing loss associated with otosclerosis
Conditions: hearing loss patients; 2 mg strontium ranelate daily for 6 months; symptoms measured monthly
Description: Hearing Loss. Hearing loss patients generally experience progressive loss of hearing.
The following populations having the symptom stated are treated with a dosing schedule of 2 mg strontium ranelate daily for 6 months.
All symptoms will be measured monthly. All improvements will be recorded and assessed.

N#Cc1c(N(CC(=O)[O-])CC(=O)[O-])sc(C(=O)[O-])c1CC(=O)[O-].[Sr+2].[Sr+2] [strontium ranelate]
hearing (gains or cessation of the progression of hearing loss): some hearing gains

— patent US20080090896A1, “Strontium-Based Treatment Of Otosclerosis” (priority 2006, published 2008)
